Test results published in patent publication US8580309B2, “Antimicrobial mixtures” (priority 2006, dated 2013).

What was measured:
[1] = test system: Staphylococcus aureus NCTC 6571; assay: Lethal photosensitisation of S. aureus by gold nanoparticle-photosensitiser mixtures under white light, viable counting; format: cell-based; conditions: preliminary experiments, 30 minutes light exposure
Protocol: Gold nanoparticles (2.0 nm diameter; British Biocell International) in water (15×10^13 particles per ml) were mixed with an equal volume of an aqueous solution of toluidine blue O (40 μM) and left at room temperature for 15 minutes. 100 μl of the gold-TB solution was added to 100 μl of a suspension of Staphylococcus aureus NCTC 6571 in phosphate buffered saline (PBS) and this was irradiated with white light from a fluorescent white lamp for 10 minutes. Controls consisted of:
(i) TB (final concentration=10 μM) and bacteria, irradiated for the same period of time,
(ii) nanogold (diluted 1:1 with water) and bacteria, irradiated for the same period of time,
(iii) bacteria without TB or nanogold, not irradiated (“control”).
After irradiation, the number of surviving bacteria was determined by viable counting. […] Note that the TB concentration and light energy dose used were designed to give sub-optimal kills so that differences in efficacy of the TB and the TB-nanogold could be discerned. Preliminary experiments using 30 minutes light exposure achieved total kills of the bacterial suspensions in both cases.
Gold nanoparticles of approximately 15 nm in diameter (batches NN1 and NN2 above) were mixed with an equal volume of aqueous toluidine blue O (TB) and left at room temperature for 15 minutes. TB was used at a final concentration of 1, 5, 10, 20 or 50 μM. […]

[2] = test system: Staphylococcus aureus NCTC 6571; assay: Lethal photosensitisation of S. aureus by TBO-tiopronin-gold nanoparticle conjugate, white light, viable counting; format: cell-based; conditions: irradiated with white light for any length of time (15, 30, 45 minutes)

For `Cc1cc2nc3ccc(N(C)C)cc3[s+]c2cc1N.[Cl-]` [TB only, toluidine blue O], which “kill of the bacterial suspensions (in words)” value [1] is on record?
The value was “total kills”.

What about the “antibacterial effect (in words)” value [2] of the same compound?
The value was “no effect”.
